Assay results as given in US11401376B2, “Chemical compounds for coating of nanostructures” (Spago Nanomedical AB, priority 2017, dated 2022).

Key:
Format in all cases: physicochemical
[1] = Heat treatment, loss of coating (Example 17); details: for Loss of coating: coated nanostructures, 80° C. for 30 minutes, washed on 10 kDa filter, Si/P ratio by ICP-OES
Description: The sample was moved to a 20 mL flask and degassed by three N2-vacuum cycles and was then kept under N2. The sample was heated in a silicon oil bath at 80° C. for 30 minutes and was then cooled to ambient room temperature. A reference aliquot was withdrawn (A). The remaining sample was washed with four times with milliQ water on a 10 kDa Vivaspin 6 centrifugation filter (Sartorious). A reference aliquot (B) was withdrawn from the retentate. Reference aliquots A, and B were analyzed with ICP-OES.

[2] = Calcium induced aggregation of the coated nanostructures (Example 15); details: 0-8 mM CaCl2, 10 mM Tris-HCl 150 mM NaCl pH 7.4, 1 h room temperature
Description: Volumes of nanostructure were added to 1 ml aliquots of 10 mM Tris-HCl 150 mM NaCl pH 7.4 containing 0, 0.5, 1, 2, 4 and 8 mM CaCl2) in microcentrifuge tubes so that the final concentration of phosphorus was 0.5 mM. The samples were vortexed, incubated at room temperature for 1 h and centrifuged for 10 min at 12000×g. The supernatants (700 μl) were removed and analyzed by ICP for phosphorus concentrations. The phosphorus concentrations were normalized to the concentration in corresponding samples without CaCl2) and plotted as ‘% remaining in solution’ against the concentration of CaCl2) in the reaction mixture. When 90% or more remains in solution the material is considered robust against calcium induced aggregation.

[3] = Stability of coated nanostructures on manganese loading / process conditions (GFC, Example 18)
Description: 200 ml of the crude solution of coated nanostructures of Example 13b was added a solution of 0.256 g MnCl2.4H2O dissolved in 2.56 ml ethylene glycol. The pH was adjusted to 4.07 with 1 M NaOH. The manganese solution was added to the reaction. An aliquot A was taken out. The reaction was heated at 100° C. for 25 h 30 min after which the temperature descended to ambient room temperature. An aliquot B was withdrawn.

hydrolysis of the coating bound to polymeric nanostructures ([1]; neutral to basic conditions) | stability of coated nanostructures under the coating / process conditions [3] | Substance | Loss of coating [1] | Ca resistance [2]
prone to slow hydrolysis |  | 1-[ω-methyl-(ethyleneoxy)12-20]-3-(prop-3-triethoxysilyl-1-yl- [A] | 5% | Y (When 90% or more remains in solution the material is considered robust against calcium induced aggregation)
 |  | 4-[ω-methyl-(ethyleneoxy)12-20]hepta-1,6-diene [Compound 43] | 0% | 
 | degraded substantially | N,N-bis(prop-3-trimethoxysilyl-1-yl)-2-[ω-methyl-(ethyleneoxy)8-11]acetamide [Compound 54] |  | 
